Source: PMC5897774, “Mitotic spindle association of TACC3 requires Aurora‐A‐dependent stabilization of a cryptic α‐helix” (The EMBO Journal, 2018)
Residues, ends and D or L forms follow the SMILES beside them. No end group written: not given here.

Columns and labels:
[1] = system: mitotic spindle, HeLa cells; assay: Spindle localization of re‐expressed GFP‐CHC constructs in CHC‐depleted HeLa cells; assay type: cell-based, human; settings: metaphase, endogenous CHC depleted, confocal imaging
Experimental: For RNAi and re‐expression of GFP‐tagged proteins in HeLa cells, siRNA and pBrain plasmids were used. Briefly, for TACC3, cells were transfected with siRNA on day 0, transfected 10 h later with pBrain plasmid and analysed on day 2. For CHC, cells were transfected with siRNA on day 0, transfected with pBrain plasmids on day 2 and fixed on day 4.
For immunofluorescence studies on the CHC/TACC3 interface mutants, cells were fixed with PTEMF (50 mM PIPES, pH 7.2, 10 mM EGTA, 1 mM MgCl2, 0.2% Triton X‐100, and 4% paraformaldehyde) for 15 min at RT, and then permeabilized (PBS with 0.1% Triton X‐100) for 10 min. Cells were blocked (PBS with 3% BSA, 5% goat serum) for 30 min, and then incubated for 1 h with the specified primary antibodies: mouse anti‐CHC (X22, Affinity BioReagents, 1:1,000), rabbit anti‐alpha tubulin (Thermo, PA5‐19489, 1:1,000), mouse anti‐TACC3 (AbCam, ab56595, 1:1,000). Secondary antibodies labelled with Alexa Fluor 568 or Alexa Fluor 647 from Life Technologies (diluted 1:500) were used along with DAPI. […] Equal exposure settings and scaling were used between conditions.
For spindle enrichment analysis, mean pixel density in two 10 × 10 pixel ROI was measured either over the spindle (away from poles), in the cytoplasm or in a non‐cell region of background, using ImageJ. Background was subtracted from the spindle and cytoplasm measurements, and spindle fluorescence was then divided by cytoplasm fluorescence. Sample sizes 48–53 cells (TACC3) and 36–51 cells (CHC) over two experiments were analysed per condition. […] Differences in spindle recruitment were evident at all expression levels. IgorPro was used to find and plot the ratio of spindles to cytoplasmic fluorescence intensity per cell. Images were cropped in ImageJ, and figures were assembled in Adobe Illustrator. Some images were contrast adjusted for presentation.

Aurora‐A [2] = target: T1, Aurora‐A (Homo sapiens, UniProt O14965, C290A/C393A); assay: FP binding assay, FAM-TACC3 peptides to Aurora‐A (WT); settings: fluorescence polarization
T1 construct: pET30TEV Aurora‐A 122–403 C290A, C393A; made in house
T1 sequence (O14965 122-403 C290A/C393A): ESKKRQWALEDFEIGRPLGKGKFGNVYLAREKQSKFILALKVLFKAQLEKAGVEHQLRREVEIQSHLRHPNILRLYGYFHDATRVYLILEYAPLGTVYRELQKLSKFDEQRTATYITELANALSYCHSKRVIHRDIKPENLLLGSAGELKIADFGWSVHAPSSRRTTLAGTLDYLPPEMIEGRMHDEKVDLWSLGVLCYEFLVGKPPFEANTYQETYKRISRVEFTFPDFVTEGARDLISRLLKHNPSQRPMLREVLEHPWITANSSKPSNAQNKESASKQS
Experimental: The contributions of the site 1 residues to the interaction were quantified using fluorescence polarization spectroscopy (FP) with a set of fluorescein (FAM)‐labelled peptides. […] Mutations within the pocket on Aurora‐A which accommodates the F525 side chain (E134A, R137A, L149A, R151A and I158A mutations) all reduced the affinity for the WT TACC3 522–536 peptide.
Aurora‐A/TACC3 fluorescence polarization assays were performed as stated (Richards et al, 2016) using FAM‐TACC3 peptides (PPR, Cambridge; Almac, Craigavon). Binding assays were performed in triplicate. FP signal was fit to a one‐site total binding model in Prism 6 (GraphPad). Results are reported as K d ± SE.

Aurora‐A [3] = target: T1, Aurora‐A; assay: Radioactive 32P‐ATP kinase assay, MBP substrate; assay type: biochemical; settings: 0.625 μM phosphorylated Aurora‐A, 5 μM TACC3^N‐ACID, 0.25 mg/ml MBP, 10 min, scintillation counting, duplicate
Experimental: Figure EV2 Biochemical and structural analysis of the Aurora‐A/TACC3 complex • FP assay between FAM‐TACC3 519–570 and Aurora‐A. Reactions were performed in triplicate. Error bars represent standard deviation. […] Error bars represent standard deviation. […] This peptide was based on the location of a sulphate ion, originating from the crystallization solution, at the interface of the Aurora‐A/TACC3 interface in the crystal structure, close to TACC3 T534. […] Myelin basic protein (MBP) was used as a generic kinase substrate. Incorporation of radioisotope was measured by scintillation counting. Reactions were performed in duplicate. Error bars represent standard error. Assays were compared to the WT TACC3^N‐ACIDH6c reaction by one‐way ANOVA with Dunnett's post hoc test. […], **P < 0.01 and ****P < 0.0001. • Multiple sequence alignment of TACC3 (above) and Aurora‐A (below) orthologs spanning the interaction binding interface. Key binding residues are boxed in red. The TACC3 phosphorylation sites, S552 and S558, are boxed in blue. The TACC3 LL motif required for binding to CHC is boxed in green. The TACC3 α‐helix produced on binding to CHC is identified by a black line. TEXT PRINTED IN THE PICTURE: (A) TACC3 519-570: 3.0 ± 0.2 μM | (B) WT: 20 ± 1 μM | (B) R526A: 49 ± 2 μM | (B) phospho-T534: 14 ± 1 μM
Radioactive ^32P‐ATP kinase assays were performed as described previously (Burgess et al, 2015). In brief, 0.625 μM Aurora‐A^M3KD WT or selected mutant was incubated with 0.25 mg/ml MBP alone and in the presence of 5 μM TACC3^N‐ACID WT or mutant for 10 min. Reactions were terminated by the addition of 2% (v/v) orthophosphoric acid. Samples were spotted onto P81 Whatman paper, washed extensively with 0.2% (v/v) orthophosphoric acid and incorporation of radioisotope measured by scintillation counting.

[4] = target: T2, FAM‐TACC3 549–570 phosphorylated on S558 (FAM‐phospho‐TACC3^CID) (human, UniProt Q9Y6A5 549-570, fluorescein (FAM) label; phosphoserine at 558); assay: fluorescence polarisation; CHC proteins serially diluted in 20 mM HEPES–NaOH pH 7.5, 200 mM NaCl, 5 mM DTT; 50 nM FAM‐labelled TACC3 peptide; 30 min at room temperature; read at 25°C; settings: both partners purified
T2 construct: TACC3, human, aa549–570 (TACC3^CID); also called pTACC3^CID; FAM‐labelled pTACC3^CID; source: FAM‐labelled peptide (FAM‐TACC3 peptides: PPR, Cambridge; Almac, Craigavon)
T2 peptide (looked up): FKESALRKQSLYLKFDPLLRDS

Molecule | spindle localization of GFP‐CHC construct [1] | further results
GFP‐CHC R481E: GFP-CHC mutated in the TACC3 binding site | impaired in spindle localization | 
CC(C)[C@H](NC(=O)[C@H](CCC(=O)O)NC(=O)[C@H](C)NC(=O)[C@@H]1CCCN1C(=O)[C@H](CC(=O)O)NC(=O)[C@H](CCCNC(=N)N)NC(=O)[C@H](Cc1ccccc1)NC(=O)[C@H](CO)NC(=O)[C@H](CCC(=O)O)NC(=O)[C@H](CCC(=O)O)NC(=O)c1ccc2c(c1)C(=O)OC21c2ccc(O)cc2Oc2cc(O)ccc21)C(=O)N[C@@H](C)C(=O)NCC(=O)N[C@H](C(=O)NCC(=O)N[C@@H](C)C(=O)O)[C@@H](C)O [L532A] (HELM PEPTIDE1{[O=C1OC2(c3ccc(O)cc3Oc3cc(O)ccc32)c2ccc(C(=O)[*:2])cc21].E.E.S.F.R.D.P.A.E.V.A.G.T.G.A}$$$$V2.0; N-terminus and C-terminus assumed) |  | reduced affinity (Aurora‐A [2]; relative to WT TACC3 522–536 peptide): 10 fold
GFP‐CHC L503A, Y504A: GFP-CHC mutated in the TACC3 binding site | impaired in spindle localization | 
GFP‐CHC L476D, L480D: GFP-CHC mutated in the TACC3 binding site | impaired in spindle localization | 
ELKEESFRDPAEVLGTGAEVDYLEQFGTSSFKESALRKQSLYLKFDPLLRDS [FAM‐TACC3 519–570] |  | Kd (Aurora‐A [2]; FAM‐labelled peptide, triplicate, one‐site total binding fit, legend: mean of three experiments ± SD, methods: K d ± SE, read-out: K d (binding affinity)): 3 ± 0.2 µM
GFP‐CHC D455K: mutation of a residue that holds R481 in place | impaired in spindle localization | 
TACC3^N‐ACID L532A: TACC3^N-ACID with L532A mutation (ELKEESFRDPAEVAGTGAEVDYLEQFGTSSFKESALRKQSLYLKF; not fully specified (C-terminus)) |  | stimulation of Aurora‐A activity (Aurora‐A [3]): twofold–threefold
CHC 1–574 F492Y (domain or fragment, UniProt Q00610 1-574, looked up, source: expressed and purified as the WT protein (modified pGEX vector; GST cleaved with TEV)) MAQILPIRFQEHLQLQNLGINPANIGFSTLTMESDKFICIREKVGEQAQVVIIDMNDPSNPIRRPISADSAIMNPASKVIALKAGKTLQIFNIEMKSKMKAHTMTDDVTFWKWISLNTVALVTDNAVYHWSMEGESQPVKMFDRHSSLAGCQIINYRTDAKQKWLLLTGISAQQNRVVGAMQLYSVDRKVSQPIEGHAASFAQFKMEGNAEESTLFCFAVRGQAGGKLHIIEVGTPPTGNQPFPKKAVDVFFPPEAQNDFPVAMQISEKHDVVFLITKYGYIHLYDLETGTCIYMNRISGETIFVTAPHEATAGIIGVNRKGQVLSVCVEEENIIPYITNVLQNPDLALRMAVRNNLAGAEELFARKFNALFAQGNYSEAAKVAANAPKGILRTPDTIRRFQSVPAQPGQTSPLLQYFGILLDQGQLNKYESLELCRPVLQQGRKQLLEKWLKEDKLECSEELGDLVKSVDPTLALSVYLRANVPNKVIQCYAETGQVQKIVLYAKKVGYTPDWIFLLRNVMRISPDQGQQFAQMLVQDEEPLADITQIVDVFMEYNLIQQCTAFLLDALKNNR |  | fold increase in Kd against WT [4]: > 6 fold
